Values of other authors as cited in patent US7666658B1, “Antibody catalysis of enantio- and diastereo-selective aldol reactions” (The Scripps Research Institute, priority 1999, dated 2010).

Settings: retro-aldolization of fructose-1,6-bisphosphate, reported at 4° C.

For “muscle aldolase: nature's muscle aldolase, natural enzyme cleaving fructose-1,6-bisphosphate”, the efficiency is listed as 4.9×10^4 s^−1M^−1.
